Source: article PMC3438226 (Bioorganic & medicinal chemistry, 2012)

How the values were obtained:
E. coli MTAN [1] = target: T1, E. coli MTAN (Escherichia coli, UniProt P0AF12); type: biochemical
N. meningitidis MTAN [2] = target: T2, N. meningitidis MTAN (Neisseria meningitidis, UniProt Q9K054); conditions: read-out: Ki* N. men. MTAN; Ki* value; cited from earlier work
E. coli MTAN [3] = target: T1, E. coli MTAN; conditions: read-out: Ki* E. coli MTAN; Ki* value; cited from earlier work
N. meningitidis MTAN [4] = target: T2, N. meningitidis MTAN; assay: Inhibition of hydrolysis of MTA catalysed by N. meningitidis MTAN; type: biochemical
human MTAP = target: T3, human MTAP (Homo sapiens, UniProt Q13126); assay: Inhibition of phosphorolysis of MTA catalysed by human MTAP; type: biochemical
T3 sequence (Q13126 1-283): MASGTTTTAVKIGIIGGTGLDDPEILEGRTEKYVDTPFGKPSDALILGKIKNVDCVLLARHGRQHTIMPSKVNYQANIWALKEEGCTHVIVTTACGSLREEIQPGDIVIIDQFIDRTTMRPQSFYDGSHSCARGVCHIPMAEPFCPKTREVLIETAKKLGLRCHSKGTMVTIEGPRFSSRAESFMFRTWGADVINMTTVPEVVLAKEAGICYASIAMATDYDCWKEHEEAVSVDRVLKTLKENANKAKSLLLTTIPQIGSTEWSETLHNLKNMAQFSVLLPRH

T1 sequence (P0AF12 whole entry): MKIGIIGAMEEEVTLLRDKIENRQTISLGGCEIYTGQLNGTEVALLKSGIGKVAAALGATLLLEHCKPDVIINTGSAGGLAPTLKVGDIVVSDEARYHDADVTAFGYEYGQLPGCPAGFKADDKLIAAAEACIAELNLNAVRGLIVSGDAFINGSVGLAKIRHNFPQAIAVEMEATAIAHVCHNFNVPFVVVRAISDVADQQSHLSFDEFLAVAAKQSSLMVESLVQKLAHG

## CSC[C@H](CO)N[C@H](CO)c1c[nH]c2c(N)ncnc12 [Compound 79]
E. coli MTAN [1]; E. coli MTAN, cleavage of 2,3 C-C bond of 3
  loss of activity relative to 3: 21,500 fold

## (1S)-1-(9-deazaadenin-9-yl)-1,4-dideoxy-1,4-imino-5-methylthio-D-ribitol [Compound 3]
N. meningitidis MTAN [2]
  Ki: 0.36 nM
E. coli MTAN [3]
  Ki: 0.08 ± 0.02 nM

## CSC[C@@H](O)[C@@H](CO)NCc1c[nH]c2c(N)ncnc12 [Compound 33]
E. coli MTAN [1]; E. coli MTAN
  times weaker inhibitor than 17 I: about 4 fold

## CSC[C@@H](O)CNCc1c[nH]c2c(N)ncnc12 [Compound 54]
E. coli MTAN [1]; E. coli MTAN
  drop in binding affinity relative to (±)-25: ~110 fold

## CSC[C@@H](CN(C)Cc1c[nH]c2c(N)ncnc12)[C@@H](O)CO (racemic) [(±)-68]
N. meningitidis MTAN [4]; N. meningitidis MTAN, N-methylation
  loss in activity relative to (±)-65: ~12 fold
Human MTAP; N-methylation
  improvement of inhibition relative to (±)-65: about 3 fold
E. coli MTAN [1]; E. coli MTAN, N-methylation
  loss of binding affinity relative to (±)-65: 250 fold

## CSC[C@H](O)[C@@H](CO)CN(C)Cc1c[nH]c2c(N)ncnc12 (racemic) [(±)-72]
N. meningitidis MTAN [4]; N. meningitidis MTAN
  reduction in binding affinity relative to (±)-68: approximately 2 fold
Human MTAP
  reduction in binding affinity relative to (±)-68: ~9 fold
E. coli MTAN [1]; E. coli MTAN
  gain in binding affinity relative to (±)-68: ~6 fold

## CSCC(CO)CNCc1c[nH]c2c(N)ncnc12 (racemic) [(±)-25]
N. meningitidis MTAN [4]; N. meningitidis MTAN
  difference in binding affinity compared with 4: 9 fold
Human MTAP
  weaker binding affinity compared with 4: approximately 110 fold
E. coli MTAN [1]; E. coli MTAN
  times weaker inhibitor than 17 I: 1.5 fold
  weaker binding affinity compared with 4: ~180 fold

## CSC[C@H](O)[C@@H](O)CN(C)Cc1c[nH]c2c(N)ncnc12 (racemic) [(±)-78]
N. meningitidis MTAN [4]; bacterial MTANs (N. meningitidis)
  increase in potency relative to (±)-72: approximately 2 fold
Human MTAP
  loss in activity relative to (±)-72: ~4 fold
E. coli MTAN [1]; bacterial MTANs (E. coli)
  increase in potency relative to (±)-72: approximately 2 fold
